Data taken from US20240300932A1, “N-PHENYLIMINE DERIVATIVE AND PREPARATION METHOD AND USE THEREOF” (Guizhou University, priority 2023, published 2024).

What was measured:
Assay in all cases: Post-emergence herbicidal activity test (stem and leaf spray, pot culture)
Assay type in all cases: in vivo
Settings in all cases: 3 weeks after spraying
[1] = tested on: Abutilon theophrasti
Method in brief: (§1)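 Graded 0–5 on fresh-weight growth control rate 3 weeks after a single spray-tower application at 10, 5 or 2.5 g/mu. Compounds in acetone with Tween 80 and methyl oleate synergist (1.5 liters/ha), applied to greenhouse weeds at 2- to 3-leaf stage.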

[2] = tested on: Amaranthus retroflexus
Method in brief: as §1

[3] = tested on: Echinochloa crusgalli
Method in brief: as §1

[4] = tested on: Portulaca oleracea
Method in brief: as §1

[5] = tested on: Setaria viridis
Method in brief: as §1

[6] = tested on: Trifoliumre pensL.
Method in brief: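 Pot-grown weeds in loam (pH 7), greenhouse at 20–30 °C, sprayed once post-emergence at the 2–3-leaf stage. Compound in acetone with Tween 80 plus methyl oleate oil (1.5 L/ha), applied at 10, 5 and 2.5 g/mu by spray tower. Effect scored 3 weeks after spraying, averaged over three repeats.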

O=C1C2=C(CCCC2)C(=O)N1c1cc(OCc2nc(-c3ccc(OC(F)(F)F)cc3)no2)c(Cl)cc1F [Compound A20]
Post-emergence herbicidal activity, A. theophrasti (grade) ([1]; dosage 2.5 g/mu): 5 (Grade 5: the growth control rate is greater than or equal to 85%) | Post-emergence herbicidal activity, A. theophrasti (grade) ([1]; dosage 5 g/mu): 5 (Grade 5: the growth control rate is greater than or equal to 85%) | Post-emergence herbicidal activity, A. theophrasti (grade) ([1]; dosage 10 g/mu): 5 (Grade 5: the growth control rate is greater than or equal to 85%) | Post-emergence herbicidal activity, A. retroflexus (grade) ([2]; dosage 2.5 g/mu): 5 (Grade 5: the growth control rate is greater than or equal to 85%) | Post-emergence herbicidal activity, A. retroflexus (grade) ([2]; dosage 5 g/mu): 5 (Grade 5: the growth control rate is greater than or equal to 85%) | Post-emergence herbicidal activity, A. retroflexus (grade) ([2]; dosage 10 g/mu): 5 (Grade 5: the growth control rate is greater than or equal to 85%) | Post-emergence herbicidal activity, E. crusgalli (grade) ([3]; dosage 2.5 g/mu): 1 (Grade 1: the growth control rate is greater than or equal to 5% and less than 20%) | Post-emergence herbicidal activity, E. crusgalli (grade) ([3]; dosage 5 g/mu): 2 (Grade 2: the growth control rate is greater than or equal to 20% and less than 40%) | Post-emergence herbicidal activity, E. crusgalli (grade) ([3]; dosage 10 g/mu): 3 (Grade 3: the growth control rate is greater than or equal to 40% and less than 60%) | Post-emergence herbicidal activity, P. oleracea (grade) ([4]; dosage 2.5 g/mu): 4 (Grade 4: the growth control rate is greater than or equal to 60% and less than 85%) | Post-emergence herbicidal activity, P. oleracea (grade) ([4]; dosage 5 g/mu): 5 (Grade 5: the growth control rate is greater than or equal to 85%) | Post-emergence herbicidal activity, P. oleracea (grade) ([4]; dosage 10 g/mu): 5 (Grade 5: the growth control rate is greater than or equal to 85%) | Post-emergence herbicidal activity, S. viridis (grade) ([5]; dosage 2.5 g/mu): 2 (Grade 2: the growth control rate is greater than or equal to 20% and less than 40%) | Post-emergence herbicidal activity, S. viridis (grade) ([5]; dosage 5 g/mu): 3 (Grade 3: the growth control rate is greater than or equal to 40% and less than 60%) | Post-emergence herbicidal activity, S. viridis (grade) ([5]; dosage 10 g/mu): 4 (Grade 4: the growth control rate is greater than or equal to 60% and less than 85%) | Post-emergence herbicidal activity, Trifoliumre pensL. (grade) ([6]; dosage 2.5 g/mu): 4 (Grade 4: the growth control rate is greater than or equal to 60% and less than 85%) | Post-emergence herbicidal activity, Trifoliumre pensL. (grade) ([6]; dosage 5 g/mu): 5 (Grade 5: the growth control rate is greater than or equal to 85%) | Post-emergence herbicidal activity, Trifoliumre pensL. (grade) ([6]; dosage 10 g/mu): 5 (Grade 5: the growth control rate is greater than or equal to 85%)

O=C1C2=C(CCCC2)C(=O)N1c1cc(OCc2nc(-c3cc(F)ccc3Cl)no2)c(Cl)cc1F [Compound A21]
Post-emergence herbicidal activity, A. theophrasti (grade) ([1]; dosage 2.5 g/mu): 5 (Grade 5: the growth control rate is greater than or equal to 85%) | Post-emergence herbicidal activity, A. theophrasti (grade) ([1]; dosage 5 g/mu): 5 (Grade 5: the growth control rate is greater than or equal to 85%) | Post-emergence herbicidal activity, A. theophrasti (grade) ([1]; dosage 10 g/mu): 5 (Grade 5: the growth control rate is greater than or equal to 85%) | Post-emergence herbicidal activity, A. retroflexus (grade) ([2]; dosage 2.5 g/mu): 5 (Grade 5: the growth control rate is greater than or equal to 85%) | Post-emergence herbicidal activity, A. retroflexus (grade) ([2]; dosage 5 g/mu): 5 (Grade 5: the growth control rate is greater than or equal to 85%) | Post-emergence herbicidal activity, A. retroflexus (grade) ([2]; dosage 10 g/mu): 5 (Grade 5: the growth control rate is greater than or equal to 85%) | Post-emergence herbicidal activity, E. crusgalli (grade) ([3]; dosage 2.5 g/mu): 1 (Grade 1: the growth control rate is greater than or equal to 5% and less than 20%) | Post-emergence herbicidal activity, E. crusgalli (grade) ([3]; dosage 5 g/mu): 2 (Grade 2: the growth control rate is greater than or equal to 20% and less than 40%) | Post-emergence herbicidal activity, E. crusgalli (grade) ([3]; dosage 10 g/mu): 3 (Grade 3: the growth control rate is greater than or equal to 40% and less than 60%) | Post-emergence herbicidal activity, P. oleracea (grade) ([4]; dosage 2.5 g/mu): 4 (Grade 4: the growth control rate is greater than or equal to 60% and less than 85%) | Post-emergence herbicidal activity, P. oleracea (grade) ([4]; dosage 5 g/mu): 5 (Grade 5: the growth control rate is greater than or equal to 85%) | Post-emergence herbicidal activity, P. oleracea (grade) ([4]; dosage 10 g/mu): 5 (Grade 5: the growth control rate is greater than or equal to 85%) | Post-emergence herbicidal activity, S. viridis (grade) ([5]; dosage 2.5 g/mu): 2 (Grade 2: the growth control rate is greater than or equal to 20% and less than 40%) | Post-emergence herbicidal activity, S. viridis (grade) ([5]; dosage 5 g/mu): 3 (Grade 3: the growth control rate is greater than or equal to 40% and less than 60%) | Post-emergence herbicidal activity, S. viridis (grade) ([5]; dosage 10 g/mu): 4 (Grade 4: the growth control rate is greater than or equal to 60% and less than 85%) | Post-emergence herbicidal activity, Trifoliumre pensL. (grade) ([6]; dosage 2.5 g/mu): 4 (Grade 4: the growth control rate is greater than or equal to 60% and less than 85%) | Post-emergence herbicidal activity, Trifoliumre pensL. (grade) ([6]; dosage 5 g/mu): 5 (Grade 5: the growth control rate is greater than or equal to 85%) | Post-emergence herbicidal activity, Trifoliumre pensL. (grade) ([6]; dosage 10 g/mu): 5 (Grade 5: the growth control rate is greater than or equal to 85%)

O=C1C2=C(CCCC2)C(=O)N1c1cc(OCc2nc(-c3ccco3)no2)c(Cl)cc1F [Compound A22]
Post-emergence herbicidal activity, A. theophrasti (grade) ([1]; dosage 2.5 g/mu): 5 (Grade 5: the growth control rate is greater than or equal to 85%) | Post-emergence herbicidal activity, A. theophrasti (grade) ([1]; dosage 5 g/mu): 5 (Grade 5: the growth control rate is greater than or equal to 85%) | Post-emergence herbicidal activity, A. theophrasti (grade) ([1]; dosage 10 g/mu): 5 (Grade 5: the growth control rate is greater than or equal to 85%) | Post-emergence herbicidal activity, A. retroflexus (grade) ([2]; dosage 2.5 g/mu): 5 (Grade 5: the growth control rate is greater than or equal to 85%) | Post-emergence herbicidal activity, A. retroflexus (grade) ([2]; dosage 5 g/mu): 5 (Grade 5: the growth control rate is greater than or equal to 85%) | Post-emergence herbicidal activity, A. retroflexus (grade) ([2]; dosage 10 g/mu): 5 (Grade 5: the growth control rate is greater than or equal to 85%) | Post-emergence herbicidal activity, E. crusgalli (grade) ([3]; dosage 2.5 g/mu): 1 (Grade 1: the growth control rate is greater than or equal to 5% and less than 20%) | Post-emergence herbicidal activity, E. crusgalli (grade) ([3]; dosage 5 g/mu): 2 (Grade 2: the growth control rate is greater than or equal to 20% and less than 40%) | Post-emergence herbicidal activity, E. crusgalli (grade) ([3]; dosage 10 g/mu): 3 (Grade 3: the growth control rate is greater than or equal to 40% and less than 60%) | Post-emergence herbicidal activity, P. oleracea (grade) ([4]; dosage 2.5 g/mu): 4 (Grade 4: the growth control rate is greater than or equal to 60% and less than 85%) | Post-emergence herbicidal activity, P. oleracea (grade) ([4]; dosage 5 g/mu): 5 (Grade 5: the growth control rate is greater than or equal to 85%) | Post-emergence herbicidal activity, P. oleracea (grade) ([4]; dosage 10 g/mu): 5 (Grade 5: the growth control rate is greater than or equal to 85%) | Post-emergence herbicidal activity, S. viridis (grade) ([5]; dosage 2.5 g/mu): 2 (Grade 2: the growth control rate is greater than or equal to 20% and less than 40%) | Post-emergence herbicidal activity, S. viridis (grade) ([5]; dosage 5 g/mu): 3 (Grade 3: the growth control rate is greater than or equal to 40% and less than 60%) | Post-emergence herbicidal activity, S. viridis (grade) ([5]; dosage 10 g/mu): 4 (Grade 4: the growth control rate is greater than or equal to 60% and less than 85%) | Post-emergence herbicidal activity, Trifoliumre pensL. (grade) ([6]; dosage 2.5 g/mu): 4 (Grade 4: the growth control rate is greater than or equal to 60% and less than 85%) | Post-emergence herbicidal activity, Trifoliumre pensL. (grade) ([6]; dosage 5 g/mu): 5 (Grade 5: the growth control rate is greater than or equal to 85%) | Post-emergence herbicidal activity, Trifoliumre pensL. (grade) ([6]; dosage 10 g/mu): 5 (Grade 5: the growth control rate is greater than or equal to 85%)

Cc1cc(F)ccc1-c1noc(COc2cc(N3C(=O)C4=C(CCCC4)C3=O)c(F)cc2Cl)n1 [Compound A23]
Post-emergence herbicidal activity, A. theophrasti (grade) ([1]; dosage 2.5 g/mu): 5 (Grade 5: the growth control rate is greater than or equal to 85%) | Post-emergence herbicidal activity, A. theophrasti (grade) ([1]; dosage 5 g/mu): 5 (Grade 5: the growth control rate is greater than or equal to 85%) | Post-emergence herbicidal activity, A. theophrasti (grade) ([1]; dosage 10 g/mu): 5 (Grade 5: the growth control rate is greater than or equal to 85%) | Post-emergence herbicidal activity, A. retroflexus (grade) ([2]; dosage 2.5 g/mu): 5 (Grade 5: the growth control rate is greater than or equal to 85%) | Post-emergence herbicidal activity, A. retroflexus (grade) ([2]; dosage 5 g/mu): 5 (Grade 5: the growth control rate is greater than or equal to 85%) | Post-emergence herbicidal activity, A. retroflexus (grade) ([2]; dosage 10 g/mu): 5 (Grade 5: the growth control rate is greater than or equal to 85%) | Post-emergence herbicidal activity, E. crusgalli (grade) ([3]; dosage 2.5 g/mu): 1 (Grade 1: the growth control rate is greater than or equal to 5% and less than 20%) | Post-emergence herbicidal activity, E. crusgalli (grade) ([3]; dosage 5 g/mu): 2 (Grade 2: the growth control rate is greater than or equal to 20% and less than 40%) | Post-emergence herbicidal activity, E. crusgalli (grade) ([3]; dosage 10 g/mu): 3 (Grade 3: the growth control rate is greater than or equal to 40% and less than 60%) | Post-emergence herbicidal activity, P. oleracea (grade) ([4]; dosage 2.5 g/mu): 4 (Grade 4: the growth control rate is greater than or equal to 60% and less than 85%) | Post-emergence herbicidal activity, P. oleracea (grade) ([4]; dosage 5 g/mu): 5 (Grade 5: the growth control rate is greater than or equal to 85%) | Post-emergence herbicidal activity, P. oleracea (grade) ([4]; dosage 10 g/mu): 5 (Grade 5: the growth control rate is greater than or equal to 85%) | Post-emergence herbicidal activity, S. viridis (grade) ([5]; dosage 2.5 g/mu): 2 (Grade 2: the growth control rate is greater than or equal to 20% and less than 40%) | Post-emergence herbicidal activity, S. viridis (grade) ([5]; dosage 5 g/mu): 3 (Grade 3: the growth control rate is greater than or equal to 40% and less than 60%) | Post-emergence herbicidal activity, S. viridis (grade) ([5]; dosage 10 g/mu): 4 (Grade 4: the growth control rate is greater than or equal to 60% and less than 85%) | Post-emergence herbicidal activity, Trifoliumre pensL. (grade) ([6]; dosage 2.5 g/mu): 4 (Grade 4: the growth control rate is greater than or equal to 60% and less than 85%) | Post-emergence herbicidal activity, Trifoliumre pensL. (grade) ([6]; dosage 5 g/mu): 5 (Grade 5: the growth control rate is greater than or equal to 85%) | Post-emergence herbicidal activity, Trifoliumre pensL. (grade) ([6]; dosage 10 g/mu): 5 (Grade 5: the growth control rate is greater than or equal to 85%)
